Test results as given in BigSolDB 2.1.

## O=C(O)CN(CC(=O)O)CP(=O)(O)O
In acetone, 293.15 K
  solubility (mole fraction): 0.000176
In acetone, 298.15 K
  solubility (mole fraction): 0.000227
In acetone, 303.15 K
  solubility (mole fraction): 0.000273
In acetone, 308.15 K
  solubility (mole fraction): 0.000352
In acetone, 313.15 K
  solubility (mole fraction): 0.000445
In acetone, 318.15 K
  solubility (mole fraction): 0.000543
In ethanol, 298.15 K
  solubility (mole fraction): 3.2e-05
In ethanol, 303.15 K
  solubility (mole fraction): 7.85e-05
In ethanol, 308.15 K
  solubility (mole fraction): 0.000102
In ethanol, 313.15 K
  solubility (mole fraction): 0.000139
In ethanol, 318.15 K
  solubility (mole fraction): 0.000196
In ethanol, 323.15 K
  solubility (mole fraction): 0.000359
In ethanol, 333.15 K
  solubility (mole fraction): 0.000733
In ethanol, 343.15 K
  solubility (mole fraction): 0.00176
In ethyl acetate, 293.15 K
  solubility (mole fraction): 0.000528
In ethyl acetate, 298.15 K
  solubility (mole fraction): 0.000627
In ethyl acetate, 303.15 K
  solubility (mole fraction): 0.000791
In ethyl acetate, 308.15 K
  solubility (mole fraction): 0.000906
In ethyl acetate, 313.15 K
  solubility (mole fraction): 0.00138
In ethyl acetate, 318.15 K
  solubility (mole fraction): 0.00153
In ethyl acetate, 323.15 K
  solubility (mole fraction): 0.00176
In ethyl acetate, 333.15 K
  solubility (mole fraction): 0.00263
In ethyl acetate, 343.15 K
  solubility (mole fraction): 0.00419
In isopropanol, 298.15 K
  solubility (mole fraction): 4.94e-05
In isopropanol, 303.15 K
  solubility (mole fraction): 8.19e-05
In isopropanol, 308.15 K
  solubility (mole fraction): 0.000128
In isopropanol, 313.15 K
  solubility (mole fraction): 0.000248
In isopropanol, 318.15 K
  solubility (mole fraction): 0.000344
In isopropanol, 323.15 K
  solubility (mole fraction): 0.000648
In isopropanol, 328.15 K
  solubility (mole fraction): 0.000898
In isopropanol, 333.15 K
  solubility (mole fraction): 0.00131
In isopropanol, 343.15 K
  solubility (mole fraction): 0.00286
In methanol, 303.15 K
  solubility (mole fraction): 6.27e-05
In methanol, 308.15 K
  solubility (mole fraction): 8.57e-05
In methanol, 313.15 K
  solubility (mole fraction): 0.000118
In methanol, 318.15 K
  solubility (mole fraction): 0.000168
In methanol, 323.15 K
  solubility (mole fraction): 0.000243
In methanol, 328.15 K
  solubility (mole fraction): 0.000407
In methanol, 333.15 K
  solubility (mole fraction): 0.000588
In n-butanol, 293.15 K
  solubility (mole fraction): 0.000113
In n-butanol, 298.15 K
  solubility (mole fraction): 0.000148
In n-butanol, 303.15 K
  solubility (mole fraction): 0.000186
In n-butanol, 308.15 K
  solubility (mole fraction): 0.000246
In n-butanol, 313.15 K
  solubility (mole fraction): 0.000299
In n-butanol, 318.15 K
  solubility (mole fraction): 0.000387
In n-butanol, 323.15 K
  solubility (mole fraction): 0.000831
In n-butanol, 333.15 K
  solubility (mole fraction): 0.00159
In n-butanol, 343.15 K
  solubility (mole fraction): 0.00342
In n-hexanol, 293.15 K
  solubility (mole fraction): 0.000966
In n-hexanol, 298.15 K
  solubility (mole fraction): 0.00107
In n-hexanol, 303.15 K
  solubility (mole fraction): 0.00116
In n-hexanol, 308.15 K
  solubility (mole fraction): 0.00137
In n-hexanol, 313.15 K
  solubility (mole fraction): 0.00155
In n-hexanol, 318.15 K
  solubility (mole fraction): 0.00197
In n-hexanol, 323.15 K
  solubility (mole fraction): 0.00233
In n-hexanol, 333.15 K
  solubility (mole fraction): 0.00337
In n-hexanol, 343.15 K
  solubility (mole fraction): 0.00499
In n-pentanol, 293.15 K
  solubility (mole fraction): 0.000125
In n-pentanol, 298.15 K
  solubility (mole fraction): 0.000149
In n-pentanol, 303.15 K
  solubility (mole fraction): 0.000186
In n-pentanol, 308.15 K
  solubility (mole fraction): 0.00023
In n-pentanol, 313.15 K
  solubility (mole fraction): 0.000377
In n-pentanol, 318.15 K
  solubility (mole fraction): 0.000583
In n-pentanol, 323.15 K
  solubility (mole fraction): 0.00105
In n-pentanol, 333.15 K
  solubility (mole fraction): 0.00195
In n-pentanol, 343.15 K
  solubility (mole fraction): 0.00392
In toluene, 293.15 K
  solubility (mole fraction): 0.00035
In toluene, 298.15 K
  solubility (mole fraction): 0.000386
In toluene, 303.15 K
  solubility (mole fraction): 0.000427
In toluene, 308.15 K
  solubility (mole fraction): 0.000645
In toluene, 313.15 K
  solubility (mole fraction): 0.00084
In toluene, 318.15 K
  solubility (mole fraction): 0.000991
In toluene, 323.15 K
  solubility (mole fraction): 0.00157
In toluene, 333.15 K
  solubility (mole fraction): 0.00248
In toluene, 343.15 K
  solubility (mole fraction): 0.0039
